Where a name gives a salt, the structure may show the parent alone.
Legend:
NMDA receptors = experiment: NMDA receptor antagonist functional assay, intracellular calcium; format: cell-based; conditions: for times more potent than amantadine as NMDA receptor antagonist: vs amantadine
[1] = system: bloodstream form T. brucei (strain 427); experiment: Trypanocidal activity against cultured bloodstream form T. brucei; conditions: concentrations up to 5 μg mL−1

SMILES | activity against cultured bloodstream form T. brucei [1] | further results
NCC12CC3CC(CC1C3)C2 [Compound 14, [(Tricyclo[3.3.1.0^3,7]non-3-yl)methyl]amine hydrochloride] | – | NMDA receptor antagonist activity (in words) (NMDA receptors; cerebellar granule neurons, highest concentration tested): no NMDA receptor antagonist activity
CC12CC3CC1(C)CC3(N)C2 [Compound 21, 3,7-Dimethyl(tricyclo[3.3.0.0^3,7]oct-1-yl)amine·HCl] | no significant activity | times more potent as NMDA receptor antagonist than 3-noradamantylamine, 7 (NMDA receptors; vs compound 7): 4 times
CC12CC3CC1(C)CC3(NCc1ccccc1)C2 [Compound 22a, N-Benzyl-3,7-dimethyl(tricyclo[3.3.0.0^3,7]oct-1-yl)amine hydrochloride] | no significant activity | –
CN(Cc1ccccc1)C12CC3(C)CC1CC3(C)C2 [Compound 23, N-Benzyl-N,3,7-trimethyl(tricyclo[3.3.0.0^3,7]oct-1-yl)amine hydrochloride] | no significant activity | –
CC(N)C12CC3(C)CC1CC3(C)C2 (stereo not drawn) [Compound 25, 1-(3,7-Dimethyltricyclo[3.3.0.0^3,7]oct-1-yl)ethylamine hydrochloride] | – | times more potent than amantadine as NMDA receptor antagonist (NMDA receptors; NMDA challenge): 2.5 times
CC12CC3CC1(C)CC3(N(Cc1ccccc1)Cc1ccccc1)C2 [Compound 27, N,N-Dibenzyl-3,7-dimethyl(tricyclo[3.3.0.0^3,7]oct-1-yl)amine hydrochloride] | no significant activity | –
CNC12CC3(C)CC1CC3(C)C2 [Compound 28, N-3,7-Trimethyl(tricyclo[3.3.0.0^3,7]oct-1-yl)amine hydrochloride] | no significant activity | –
CN(Cc1ccccc1)CC12CC3(C)CC1CC3(C)C2 [Compound 32, N-Benzyl-N-methyl[(3,7-dimethyltricyclo[3.3.0.0^3,7]oct-1-yl)methyl]amine hydrochloride] | no significant activity | –
CC12CC3CC1(C)CC3(CN1CCCCC1)C2 [Compound 34, N-[(3,7-Dimethyltricyclo[3.3.0.0^3,7]oct-1-yl)methyl]piperidine hydrochloride] | no significant activity | –
CC12CC3CC1(C)CC3(CNC(=N)N)C2 [Compound 35, N-[(3,7-dimethyltricyclo[3.3.0.0^3,7]oct-1-yl)methyl]guanidine hydrochloride] | without antiviral and trypanocidal activities | times more potent than amantadine as NMDA receptor antagonist (NMDA receptors; NMDA challenge): 10 times; times more potent than corresponding noradamantyl analog, 18 (NMDA receptors; vs compound 18): 3.5 times; times less potent than memantine as NMDA receptor antagonist (NMDA receptors; vs memantine, NMDA challenge): 5 times
CNCC12CC3(C)CC1CC3(C)C2 [Compound 36, N-Methyl[(3,7-dimethyltricyclo[3.3.0.0^3,7]oct-1-yl)methyl]amine hydrochloride] | no significant activity | –

— PMC7125889 (Bioorganic & Medicinal Chemistry, 2008)
